Reference: ChEMBL document CHEMBL1151757, “Synthesis, radiosynthesis, and biological evaluation of fluorine-18-labeled 2beta-carbo(fluoroalkoxy)-3beta-(3'-((Z)-2-haloethenyl)phenyl)nortropanes: candidate radioligands for in vivo imaging of the serotonin transporter with positron emission tomography” (J Med Chem, 2008)

What was measured:
[1] = Ratio of drug uptake in medulla to cerebellum in anesthetized cynomolgus monkey after 12.5 mins postinjection; format: ADME, organism-based, Macaca fascicularis; conditions: in vivo
[2] = Ratio of drug uptake in medulla to cerebellum in anesthetized cynomolgus monkey after 65 mins postinjection; format: ADME, organism-based, Macaca fascicularis; conditions: in vivo
[3] = Ratio of drug uptake in medulla to cerebellum in anesthetized cynomolgus monkey after 95 mins postinjection; format: ADME, organism-based, Macaca fascicularis; conditions: in vivo
[4] = Ratio of drug uptake in medulla to cerebellum in anesthetized cynomolgus monkey after 135 mins postinjection; format: ADME, organism-based, Macaca fascicularis; conditions: in vivo, 2.25 h
[5] = Ratio of drug uptake in medulla to cerebellum in anesthetized cynomolgus monkey after 165 mins postinjection; format: ADME, organism-based, Macaca fascicularis; conditions: in vivo, 2.75 h
[6] = Drug uptake in anesthetized cynomolgus monkey brain occipital lobe after 27.5 mins postinjection; format: ADME, organism-based, Macaca fascicularis; conditions: in vivo
[7] = Drug uptake in anesthetized cynomolgus monkey brain occipital lobe after 45 mins postinjection; format: ADME, organism-based, Macaca fascicularis; conditions: in vivo, 0.75 h
[8] = Drug uptake in anesthetized cynomolgus monkey brain occipital lobe after 65 mins postinjection; format: ADME, organism-based, Macaca fascicularis; conditions: in vivo
[9] = Drug uptake in anesthetized cynomolgus monkey brain occipital lobe after 125 mins postinjection; format: ADME, organism-based, Macaca fascicularis; conditions: in vivo
[10] = Drug uptake in anesthetized cynomolgus monkey brain occipital lobe after 155 mins postinjection; format: ADME, organism-based, Macaca fascicularis; conditions: in vivo
[11] = Drug uptake in anesthetized cynomolgus monkey brain occipital lobe after 175 mins postinjection; format: ADME, organism-based, Macaca fascicularis; conditions: in vivo
[12] = Drug uptake in anesthetized cynomolgus monkey brain occipital lobe after 225 mins postinjection; format: ADME, organism-based, Macaca fascicularis; conditions: in vivo, 3.75 h
[13] = Drug uptake in anesthetized cynomolgus monkey brain frontal lobe after 4.5 mins postinjection; format: ADME, organism-based, Macaca fascicularis; conditions: in vivo, 0.075 h
[14] = Drug uptake in anesthetized cynomolgus monkey brain frontal lobe after 225 mins postinjection; format: ADME, organism-based, Macaca fascicularis; conditions: in vivo, 3.75 h
[15] = Ratio of drug uptake in midbrain to cerebellum in anesthetized cynomolgus monkey after 225 mins postinjection; format: ADME, organism-based, Macaca fascicularis; conditions: in vivo, 3.75 h
[16] = Ratio of drug uptake in occipital lobe to cerebellum in anesthetized cynomolgus monkey after 175 mins postinjection; format: ADME, organism-based, Macaca fascicularis; conditions: in vivo
Putamen [17] = assay: Drug uptake in anesthetized cynomolgus monkey brain putamen after 235 mins postinjection; format: ADME, organism-based, Macaca fascicularis; conditions: in vivo
Thalamus [18] = assay: Drug uptake in anesthetized cynomolgus monkey brain thalamus after 1.5 mins postinjection; format: ADME, organism-based, Macaca fascicularis; conditions: in vivo, 0.025 h
[19] = Ratio of drug uptake in frontal lobe to cerebellum in anesthetized cynomolgus monkey after 35 mins postinjection; format: ADME, organism-based, Macaca fascicularis; conditions: in vivo
[20] = Ratio of drug uptake in frontal lobe to cerebellum in anesthetized cynomolgus monkey after 145 mins postinjection; format: ADME, organism-based, Macaca fascicularis; conditions: in vivo
Midbrain [21] = assay: Drug uptake in anesthetized cynomolgus monkey brain midbrain after 215 mins postinjection; format: ADME, organism-based, Macaca fascicularis; conditions: in vivo
Pons [22] = assay: Drug uptake in anesthetized cynomolgus monkey brain pons after 1.5 mins postinjection; format: ADME, organism-based, Macaca fascicularis; conditions: in vivo, 0.025 h
Pons [23] = assay: Drug uptake in anesthetized cynomolgus monkey brain pons after 18.5 mins postinjection; format: ADME, organism-based, Macaca fascicularis; conditions: in vivo
Pons [24] = assay: Drug uptake in anesthetized cynomolgus monkey brain pons after 45 mins postinjection; format: ADME, organism-based, Macaca fascicularis; conditions: in vivo, 0.75 h
[25] = Ratio of drug uptake in frontal lobe to cerebellum in anesthetized cynomolgus monkey after 235 mins postinjection; format: ADME, organism-based, Macaca fascicularis; conditions: in vivo
[26] = Ratio of drug uptake in caudate to cerebellum in anesthetized cynomolgus monkey after 12.5 mins postinjection; format: ADME, organism-based, Macaca fascicularis; conditions: in vivo
[27] = Ratio of drug uptake in caudate to cerebellum in anesthetized cynomolgus monkey after 18.5 mins postinjection; format: ADME, organism-based, Macaca fascicularis; conditions: in vivo
[28] = Ratio of drug uptake in caudate to cerebellum in anesthetized cynomolgus monkey after 155 mins postinjection; format: ADME, organism-based, Macaca fascicularis; conditions: in vivo
Pons [29] = assay: Drug uptake in anesthetized cynomolgus monkey brain pons after 115 mins postinjection; format: ADME, organism-based, Macaca fascicularis; conditions: in vivo
Pons [30] = assay: Drug uptake in anesthetized cynomolgus monkey brain pons after 145 mins postinjection; format: ADME, organism-based, Macaca fascicularis; conditions: in vivo
Medulla [31] = assay: Drug uptake in anesthetized cynomolgus monkey brain medulla after 3.5 mins postinjection; format: ADME, organism-based, Macaca fascicularis; conditions: in vivo
Medulla [32] = assay: Drug uptake in anesthetized cynomolgus monkey brain medulla after 9.5 mins postinjection; format: ADME, organism-based, Macaca fascicularis; conditions: in vivo
Medulla [33] = assay: Drug uptake in anesthetized cynomolgus monkey brain medulla after 95 mins postinjection; format: ADME, organism-based, Macaca fascicularis; conditions: in vivo
Medulla [34] = assay: Drug uptake in anesthetized cynomolgus monkey brain medulla after 125 mins postinjection; format: ADME, organism-based, Macaca fascicularis; conditions: in vivo
[35] = Ratio of drug uptake in putamen to cerebellum in anesthetized cynomolgus monkey after 165 mins postinjection; format: ADME, organism-based, Macaca fascicularis; conditions: in vivo, 2.75 h
[36] = Drug uptake in anesthetized cynomolgus monkey brain cerebellum after 4.5 mins postinjection; format: ADME, organism-based, Macaca fascicularis; conditions: in vivo, 0.075 h
[37] = Drug uptake in anesthetized cynomolgus monkey brain cerebellum after 12.5 mins postinjection; format: ADME, organism-based, Macaca fascicularis; conditions: in vivo
[38] = Drug uptake in anesthetized cynomolgus monkey brain cerebellum after 95 mins postinjection; format: ADME, organism-based, Macaca fascicularis; conditions: in vivo
[39] = Drug uptake in anesthetized cynomolgus monkey brain cerebellum after 155 mins postinjection; format: ADME, organism-based, Macaca fascicularis; conditions: in vivo
[40] = Drug uptake in anesthetized cynomolgus monkey brain cerebellum after 215 mins postinjection; format: ADME, organism-based, Macaca fascicularis; conditions: in vivo
[41] = Drug uptake in anesthetized cynomolgus monkey brain occipital lobe after 0.5 mins postinjection; format: ADME, organism-based, Macaca fascicularis; conditions: in vivo
[42] = Ratio of drug uptake in thalamus to cerebellum in anesthetized cynomolgus monkey after 9.5 mins postinjection; format: ADME, organism-based, Macaca fascicularis; conditions: in vivo
[43] = Ratio of drug uptake in thalamus to cerebellum in anesthetized cynomolgus monkey after 27.5 mins postinjection; format: ADME, organism-based, Macaca fascicularis; conditions: in vivo
Caudate [44] = assay: Drug uptake in anesthetized cynomolgus monkey brain caudate after 2.5 mins postinjection; format: ADME, organism-based, Macaca fascicularis, Caudate nucleus; conditions: in vivo
Caudate [45] = assay: Drug uptake in anesthetized cynomolgus monkey brain caudate after 9.5 mins postinjection; format: ADME, organism-based, Macaca fascicularis, Caudate nucleus; conditions: in vivo
Caudate [46] = assay: Drug uptake in anesthetized cynomolgus monkey brain caudate after 55 mins postinjection; format: ADME, organism-based, Macaca fascicularis, Caudate nucleus; conditions: in vivo
Putamen [47] = assay: Drug uptake in anesthetized cynomolgus monkey brain putamen after 0.5 mins postinjection; format: ADME, organism-based, Macaca fascicularis; conditions: in vivo
Putamen [48] = assay: Drug uptake in anesthetized cynomolgus monkey brain putamen after 3.5 mins postinjection; format: ADME, organism-based, Macaca fascicularis; conditions: in vivo
[49] = Ratio of drug uptake in occipital lobe to cerebellum in anesthetized cynomolgus monkey after 12.5 mins postinjection; format: ADME, organism-based, Macaca fascicularis; conditions: in vivo
Thalamus [50] = assay: Drug uptake in anesthetized cynomolgus monkey brain thalamus after 3.5 mins postinjection; format: ADME, organism-based, Macaca fascicularis; design: unit not given here; conditions: in vivo
Thalamus [51] = assay: Drug uptake in anesthetized cynomolgus monkey brain thalamus after 6.5 mins postinjection; format: ADME, organism-based, Macaca fascicularis; design: unit not given here; conditions: in vivo
Thalamus [52] = assay: Drug uptake in anesthetized cynomolgus monkey brain thalamus after 45 mins postinjection; format: ADME, organism-based, Macaca fascicularis; design: unit not given here; conditions: in vivo, 0.75 h
Putamen [53] = assay: Drug uptake in anesthetized cynomolgus monkey brain putamen after 15.5 mins postinjection; format: ADME, organism-based, Macaca fascicularis; design: unit not given here; conditions: in vivo
Putamen [54] = assay: Drug uptake in anesthetized cynomolgus monkey brain putamen after 22.5 mins postinjection; format: ADME, organism-based, Macaca fascicularis; design: unit not given here; conditions: in vivo, 0.375 h
Putamen [55] = assay: Drug uptake in anesthetized cynomolgus monkey brain putamen after 55 mins postinjection; format: ADME, organism-based, Macaca fascicularis; design: unit not given here; conditions: in vivo
Putamen [56] = assay: Drug uptake in anesthetized cynomolgus monkey brain putamen after 85 mins postinjection; format: ADME, organism-based, Macaca fascicularis; design: unit not given here; conditions: in vivo
Thalamus [57] = assay: Drug uptake in anesthetized cynomolgus monkey brain thalamus after 55 mins postinjection; format: ADME, organism-based, Macaca fascicularis; design: unit not given here; conditions: in vivo
Thalamus [58] = assay: Drug uptake in anesthetized cynomolgus monkey brain thalamus after 65 mins postinjection; format: ADME, organism-based, Macaca fascicularis; design: unit not given here; conditions: in vivo
Thalamus [59] = assay: Drug uptake in anesthetized cynomolgus monkey brain thalamus after 115 mins postinjection; format: ADME, organism-based, Macaca fascicularis; design: unit not given here; conditions: in vivo
Midbrain [60] = assay: Drug uptake in anesthetized cynomolgus monkey brain midbrain after 4.5 mins postinjection; format: ADME, organism-based, Macaca fascicularis; design: unit not given here; conditions: in vivo, 0.075 h
Midbrain [61] = assay: Drug uptake in anesthetized cynomolgus monkey brain midbrain after 55 mins postinjection; format: ADME, organism-based, Macaca fascicularis; design: unit not given here; conditions: in vivo
Midbrain [62] = assay: Drug uptake in anesthetized cynomolgus monkey brain midbrain after 105 mins postinjection; format: ADME, organism-based, Macaca fascicularis; design: unit not given here; conditions: in vivo, 1.75 h
[63] = Ratio of drug uptake in midbrain to cerebellum in anesthetized cynomolgus monkey after 2.5 mins postinjection; format: ADME, organism-based, Macaca fascicularis; conditions: in vivo
[64] = Ratio of drug uptake in midbrain to cerebellum in anesthetized cynomolgus monkey after 95 mins postinjection; format: ADME, organism-based, Macaca fascicularis; conditions: in vivo

O=C(OCCC[18F])C1C2CCC(CC1c1cccc(/C=C\Br)c1)N2 (centres undefined)
Ratio [1]: 1 | Ratio [2]: 1.3 | Ratio [3]: 1.5 | Ratio [4]: 1.7 | Ratio [5]: 1.7 | Drug uptake [6]: 4.71 | Drug uptake [7]: 4.61 | Drug uptake [8]: 4.52 | Drug uptake [9]: 3.64 | Drug uptake [10]: 3.27 | Drug uptake [11]: 3.06 | Drug uptake [12]: 2.54 | Drug uptake [13]: 1.85 | Drug uptake [14]: 1.97 | Ratio [15]: 2.1 | Ratio [16]: 1.3 | Drug uptake (Putamen [17]): 3.27 | Drug uptake (Thalamus [18]): 0.34 | Ratio [19]: 0.7 | Ratio [20]: 1 | Drug uptake (Midbrain [21]): 4.58 | Drug uptake (Pons [22]): 0.38 | Drug uptake (Pons [23]): 4.55 | Drug uptake (Pons [24]): 4.85 | Ratio [25]: 1.1 | Ratio [26]: 0.7 | Ratio [27]: 0.7 | Ratio [28]: 1.6 | Drug uptake (Pons [29]): 4.2 | Drug uptake (Pons [30]): 4.35 | Drug uptake (Medulla [31]): 2.91 | Drug uptake (Medulla [32]): 5.63 | Drug uptake (Medulla [33]): 5.59 | Drug uptake (Medulla [34]): 4.99 | Ratio [35]: 1.7 | Drug uptake [36]: 3.51 | Drug uptake [37]: 5.72 | Drug uptake [38]: 3.81 | Drug uptake [39]: 2.62 | Drug uptake [40]: 2.1 | Drug uptake [41]: 0.01 | Ratio [42]: 0.7 | Ratio [43]: 0.9 | Drug uptake (Caudate [44]): 0.83 | Drug uptake (Caudate [45]): 3.93 | Drug uptake (Caudate [46]): 5.31 | Drug uptake (Putamen [47]): 0.01 | Drug uptake (Putamen [48]): 2.28 | Ratio [49]: 0.7 | Drug uptake (Thalamus [50]): 1.89 | Drug uptake (Thalamus [51]): 3.71 | Drug uptake (Thalamus [52]): 5.49 | Drug uptake (Putamen [53]): 5.53 | Drug uptake (Putamen [54]): 5.81 | Drug uptake (Putamen [55]): 5.97 | Drug uptake (Putamen [56]): 5.54 | Drug uptake (Thalamus [57]): 5.46 | Drug uptake (Thalamus [58]): 5.39 | Drug uptake (Thalamus [59]): 4.82 | Drug uptake (Midbrain [60]): 3.08 | Drug uptake (Midbrain [61]): 6.1 | Drug uptake (Midbrain [62]): 5.59 | Ratio [63]: 1 | Ratio [64]: 1.5
